The results in this text go back to ChEMBL document CHEMBL1811798, “Synthesis and evaluation of 2'-O-allyl substituted dinucleotide cap analog for mRNA translation” (Bioorg Med Chem, 2010).

One assay relates to HeLa. Description: Translational efficiency bacteriophage T7 RNA polymerase expressed in human HeLa cells assessed as protein production using 5'-capped RAN after 16 hrs of post-transfection by luciferase reporter gene assay relative to standard cap analog. It counts as cell-based. The conditions noted are these: Escherichia phage T7.
The next assay has as its system Escherichia phage T7. In words: Binding affinity to bacteriophage T7 RNA polymerase assessed as incorporation of compound into supercoiled mRNA transcript at 6 mM after 2 hrs.
Assay [1] deals with Nucleic Acid. Description: Capping efficiency on beta-actin mRNA using [alpha-32P]-ATP at 1.6 mM after 2 hrs by HPLC analysis in presence of T7 RNA polymerase. It counts as nucleic-acid assay.
For assay [2], the system named is Nucleic Acid. In words: Capping efficiency on beta-actin mRNA using [alpha-32P]-ATP at 1.6 mM after 2 hrs by gel shift assay in presence of T7 RNA polymerase. It counts as nucleic-acid assay. (In general: In EMSA bound probe runs differently from free probe, usually more slowly.)

Activity calls are given as the source filed them. The calls are words filed in the database; no cut-off is given here.

`C=CCO[C@@H]1[C@H](O)[C@@H](COP(=O)(O)OP(=O)([O-])OP(=O)(O)OC[C@H]2O[C@@H](n3cnc4c(=O)[nH]c(N)nc43)[C@H](O)[C@@H]2O)O[C@H]1[n+]1cn(C)c2c(=O)[nH]c(N)nc21`: the fold change (FC) with HeLa was determined as 1.7. The result with Escherichia phage T7 and with Nucleic Acid [1] was Active. Moreover, the Activity with Nucleic Acid [2] turned out to be 70%.
